Source: DBAASP
≈ marks a conversion by molar mass, not a printed value.

What was measured:
Experiment in all cases: ≥ marks a high value that may be exact or a test limit, other limits are often not marked, values filed in µg/mL are converted to µM
[1] = tested on: Staphylococcus aureus ATCC 25923
[2] = tested on: Bacillus subtilis ATCC 23857
[3] = tested on: Pseudomonas aeruginosa ATCC 9027
[4] = tested on: Escherichia coli ATCC 25922
[5] = tested on: Klebsiella pneumoniae ATCC 700603
[6] = tested on: Staphylococcus aureus ATCC 6538
[7] = tested on: Enterococcus faecalis ATCC 29212
[8] = tested on: Acinetobacter baumannii ATCC 19606
[9] = tested on: Staphylococcus epidermidis ATCC 12228
[10] = tested on: Pseudomonas aeruginosa ATCC 27853
[11] = tested on: Candida albicans ATCC 90028
Acinetobacter baumannii = tested on: Acinetobacter baumannii
Staphylococcus aureus = tested on: Staphylococcus aureus
[12] = tested on: Salmonella enterica subsp. enterica serovar Typhimurium ATCC 14028
Klebsiella pneumoniae = tested on: Klebsiella pneumoniae
[13] = tested on: Candida albicans ATCC 2002

Row | SMILES | MIC [1] [µM] | MIC [2] [µM] | MIC [3] [µM] | MIC [4] [µM] | MIC [5] [µM] | MIC [6] [µM] | also measured
1 | CC[C@H](C)[C@H](NC(=O)[C@H](CCCCN)NC(=O)[C@H](CCCCN)NC(=O)[C@H](C)NC(=O)[C@@H](NC(=O)[C@H](C)NC(=O)[C@H](CC(C)C)NC(=O)[C@H](CC(C)C)NC(=O)[C@H](C)NC(=O)[C@H](CCCCN)NC(=O)[C@H](CC(C)C)NC(=O)[C@H](CC(N)=O)NC(=O)[C@H](C)N)C(C)C)C(=O)N[C@@H](CC(C)C)C(N)=O [ANLKALLAVAKKIL] | 32 (≈ 46.9 µg/mL) | 4 (≈ 5.86 µg/mL) | 16 (≈ 23.4 µg/mL) | 4 (≈ 5.86 µg/mL) | 16 (≈ 23.4 µg/mL) | – | –
2 | CC[C@H](C)[C@H](NC(=O)CNC(=O)[C@@H](N)CS)C(=O)N[C@H](C(=O)N[C@@H](C)C(=O)NCC(=O)N[C@H](C(=O)N[C@H](C(=O)N[C@H](C(=O)N[C@@H](CCCCN)C(=O)N[C@H](C(=O)N[C@@H](CCCCN)C(=O)N[C@@H](CCCCN)C(=O)N[C@@H](CS)C(N)=O)[C@@H](C)CC)[C@@H](C)CC)[C@@H](C)CC)[C@@H](C)CC)[C@@H](C)CC [CGIIAGIIIKIKKC] | – | ≥ 32 | – | > 128 | – | – | –
3 | CC(C)C[C@H](NC(=O)[C@H](C)NC(=O)[C@H](CC(C)C)NC(=O)[C@H](CCCCN)NC(=O)[C@H](C)NC(=O)[C@H](CC(C)C)NC(=O)[C@H](CCCCN)NC(=O)[C@H](CCCCN)NC(=O)[C@H](CC(C)C)NC(=O)[C@H](CCCCN)NC(=O)[C@H](CCCCN)NC(=O)[C@H](C)NC(=O)[C@H](CC(C)C)NC(=O)[C@H](CCCCN)NC(=O)[C@H](CCCCN)NC(=O)[C@H](C)NC(=O)[C@@H](N)Cc1ccccc1)C(=O)N[C@@H](C)C(=O)N[C@@H](CCCCN)C(N)=O [FAKKLAKKLKKLAKLALAK] | – | – | 4.74 (≈ 10 µg/mL) | – | – | 4.74 (≈ 10 µg/mL) | –
4 | CC(C)C[C@H](NC(=O)[C@H](C)NC(=O)[C@H](CC(C)C)NC(=O)[C@H](C)NC(=O)[C@H](CCCCN)NC(=O)[C@H](CCCCN)NC(=O)[C@H](C)NC(=O)[C@H](CC(C)C)NC(=O)[C@H](CCCCN)NC(=O)[C@H](C)NC(=O)[C@H](CC(C)C)NC(=O)[C@H](CCCCN)NC(=O)[C@H](CCCCN)NC(=O)[C@H](C)NC(=O)[C@@H](N)Cc1ccccc1)C(N)=O [FAKKLAKLAKKALAL] | – | – | 15.5 (≈ 25 µg/mL) | – | – | 62 (≈ 99.9 µg/mL) | –
5 | CC[C@H](C)[C@H](NC(=O)[C@H](CCCCN)NC(=O)[C@H](CCCCN)NC(=O)[C@H](C)NC(=O)[C@H](CC(C)C)NC(=O)[C@H](CCCCN)NC(=O)[C@H](C)NC(=O)[C@H](CC(C)C)NC(=O)[C@H](CC(C)C)NC(=O)[C@H](CCCCN)NC(=O)[C@H](C)NC(=O)[C@@H](N)Cc1ccccc1)C(=O)N[C@@H](CC(C)C)C(N)=O [FAKLLAKLAKKIL] | – | – | 68.6 (≈ 99.9 µg/mL) | – | – | 6.86 (≈ 9.99 µg/mL) | –
6 | CC(C)C[C@H](NC(=O)[C@H](C)NC(=O)[C@H](CCCCN)NC(=O)[C@H](CCCCN)NC(=O)[C@H](C)NC(=O)[C@H](CC(C)C)NC(=O)[C@H](CCCCN)NC(=O)[C@H](CCCCN)NC(=O)[C@H](CC(C)C)NC(=O)[C@H](CCCCN)NC(=O)[C@H](CCCCN)NC(=O)[C@H](C)NC(=O)[C@H](CC(C)C)NC(=O)[C@H](CCCCN)NC(=O)[C@H](CCCCN)NC(=O)[C@H](CC(C)C)NC(=O)[C@H](C)NC(=O)[C@H](CCCCN)NC(=O)[C@H](CC(C)C)NC(=O)[C@H](C)NC(=O)[C@H](CC(C)C)NC(=O)[C@H](C)NC(=O)[C@@H](N)Cc1ccccc1)C(N)=O [FALALKALKKLAKKLKKLAKKAL] | – | – | 1.97 (≈ 5 µg/mL) | – | – | 3.94 (≈ 10 µg/mL) | –
7 | CC[C@H](C)[C@H](NC(=O)[C@H](CCCN=C(N)N)NC(=O)[C@H](CCCN=C(N)N)NC(=O)[C@H](Cc1ccccc1)NC(=O)[C@H](Cc1ccccc1)NC(=O)CN)C(=O)N[C@@H](CCCCN)C(=O)N[C@H](C(=O)N[C@@H](Cc1ccccc1)C(=O)N[C@@H](Cc1ccccc1)C(N)=O)[C@@H](C)O [GFFRRIKTFF] | 16 (≈ 21.1 µg/mL) | 16 (≈ 21.1 µg/mL) | – | 32 (≈ 42.2 µg/mL) | 32 (≈ 42.2 µg/mL) | – | MIC [7]: 64 µM (≈ 84.3 µg/mL); MIC [8]: 64 µM (≈ 84.3 µg/mL); MIC [9]: 64 µM (≈ 84.3 µg/mL); MIC [10]: 8 µM (≈ 10.5 µg/mL)
8 | CC[C@H](C)[C@H](NC(=O)CN)C(=O)N[C@H](C(=O)N[C@@H](CCCCN)C(=O)NCC(=O)N[C@H](C(=O)N[C@H](C(=O)N[C@@H](CCCCN)C(=O)N[C@H](C(=O)N[C@H](C(=O)N[C@@H](CCCCN)C(=O)N[C@@H](C)C(N)=O)[C@@H](C)CC)[C@@H](C)CC)[C@@H](C)CC)[C@@H](C)CC)[C@@H](C)CC [GIIKGIIKIIKA] | – | 4 (≈ 5.06 µg/mL) | – | 128 (≈ 162 µg/mL) | – | – | –
9 | CC[C@H](C)[C@H](NC(=O)CN)C(=O)N[C@@H](CCCN=C(N)N)C(=O)N[C@@H](Cc1c[nH]c2ccccc12)C(=O)N[C@@H](CCCCN)C(=O)N[C@@H](Cc1ccccc1)C(=O)N[C@@H](Cc1c[nH]c2ccccc12)C(=O)N[C@@H](CCCCN)C(=O)N[C@@H](Cc1ccccc1)C(=O)N[C@H](C(N)=O)[C@@H](C)O [GIRWKFWKFT] | 32 (≈ 43.8 µg/mL) | ≥ 64 | – | 32 (≈ 43.8 µg/mL) | 64 (≈ 87.5 µg/mL) | – | MIC [7]: 128 µM (≈ 175 µg/mL); MIC [8]: 128 µM (≈ 175 µg/mL); MIC [9]: 128 µM (≈ 175 µg/mL); MIC [10]: 16 µM (≈ 21.9 µg/mL)
10 | CC[C@H](C)[C@H](NC(=O)[C@H](CCCCN)NC(=O)[C@H](Cc1ccccc1)NC(=O)[C@H](C)NC(=O)[C@H](CCCCN)NC(=O)CNC(=O)[C@H](CC(C)C)NC(=O)[C@H](CC(C)C)NC(=O)[C@H](CO)NC(=O)CNC(=O)[C@H](CC(C)C)NC(=O)CN)C(=O)NCC(=O)N[C@@H](CC(C)C)C(=O)N[C@@H](CCCCN)C(=O)N[C@H](C(=O)N[C@H](C(=O)NCC(=O)N[C@@H](CCCCN)C(=O)N[C@@H](CCSC)C(=O)N[C@@H](CCSC)C(=O)NCC(=O)NCC(=O)N[C@@H](C)C(=O)N1CCC[C@H]1C(=O)N[C@@H](CCCNC(=N)N)C(=O)N[C@@H](CCC(=O)O)C(=O)N[C@@H](CCC(N)=O)C(=O)O)C(C)C)[C@@H](C)O [GLGSLLGKAFKIGLKTVGKMMGGAPREQ] | 5 (≈ 14.2 µg/mL) | – | – | 5 (≈ 14.2 µg/mL) | – | – | MIC [11]: 25 µM (≈ 71.1 µg/mL); MIC (Acinetobacter baumannii): 5.66 µM (≈ 16.1 µg/mL); MIC (Staphylococcus aureus): 5.66 µM (≈ 16.1 µg/mL)
11 | CC[C@H](C)[C@H](NC(=O)[C@@H](NC(=O)[C@H](CCCCN)NC(=O)[C@H](CCCCN)NC(=O)[C@H](CC(C)C)NC(=O)CN)C(C)C)C(=O)N[C@@H](CCCCN)C(=O)N[C@@H](CC(C)C)C(=O)N[C@@H](CC(C)C)C(=O)N[C@@H](CCCN=C(N)N)C(=O)N1CCC[C@H]1C(=O)N[C@@H](CC(C)C)C(=O)N[C@@H](CC(C)C)C(=O)O [GLKKVIKLLRPLL] | 32 (≈ 47.7 µg/mL) | – | 16 (≈ 23.9 µg/mL) | > 64 | > 64 | – | MIC (Acinetobacter baumannii): ≥ 32 µM
12 | CC[C@H](C)[C@H](NC(=O)[C@H](Cc1ccc(O)cc1)NC(=O)[C@@H](NC(=O)[C@H](CCCN=C(N)N)NC(=O)[C@H](CC(N)=O)NC(=O)[C@H](CC(N)=O)NC(=O)CN)C(C)C)C(=O)N1CCC[C@H]1C(=O)N[C@@H](CCC(N)=O)C(=O)N1CCC[C@H]1C(=O)N[C@@H](CCCN=C(N)N)C(=O)N1CCC[C@H]1C(=O)N[C@@H](Cc1cnc[nH]1)C(=O)N1CCC[C@H]1C(=O)N[C@@H](CCCN=C(N)N)C(=O)N[C@@H](CC(C)C)C(=O)O [GNNRVYIPQPRPHPRL] | – | – | – | > 128 | – | – | MIC [12]: > 128 µM; MIC (Klebsiella pneumoniae): > 128 µM
13 | CC(C)C[C@H](NC(=O)CNC(=O)[C@@H](NC(=O)[C@@H]1CCCN1C(=O)[C@H](CC(C)C)NC(=O)CNC(=O)[C@H](CC(N)=O)NC(=O)[C@H](CC(N)=O)NC(=O)[C@H](Cc1ccccc1)NC(=O)[C@@H](NC(=O)[C@H](CCCN=C(N)N)NC(=O)[C@H](CS)NC(=O)[C@H](CCCN=C(N)N)NC(=O)[C@H](Cc1cnc[nH]1)NC(=O)[C@H](CCCCN)NC(=O)[C@H](CCCCN)NC(=O)[C@H](CCCN=C(N)N)NC(=O)[C@@H](N)CCCCN)C(C)C)[C@@H](C)O)C(=O)N[C@@H](Cc1ccc(O)cc1)C(=O)N[C@@H](CCCN=C(N)N)C(=O)N[C@@H](Cc1c[nH]c2ccccc12)C(=O)N[C@@H](CS)C(N)=O [KRKKHRCRVFNNGLPTGLYRWC] | – | – | – | – | – | 4.1 (≈ 11.2 µg/mL) | –
14 | CC[C@H](C)[C@H](NC(=O)[C@H](CCCCN)NC(=O)[C@H](CCCCN)NC(=O)[C@H](C)NC(=O)[C@@H](NC(=O)[C@H](C)NC(=O)[C@H](C)NC(=O)[C@H](CC(C)C)NC(=O)[C@H](CCCCN)NC(=O)[C@H](CCCCN)NC(=O)[C@H](CC(C)C)NC(=O)[C@H](CC(N)=O)NC(=O)[C@@H](N)CC(C)C)C(C)C)C(=O)N[C@@H](CC(C)C)C(N)=O [LNLKKLAAVAKKIL] | 32 (≈ 48.7 µg/mL) | 4 (≈ 6.09 µg/mL) | 4 (≈ 6.09 µg/mL) | 8 (≈ 12.2 µg/mL) | 32 (≈ 48.7 µg/mL) | – | –
15 | CC[C@H](C)[C@H](NC(=O)[C@@H](NC(=O)[C@@H](NC(=O)[C@@H]1CCCN1C(=O)[C@H](Cc1c[nH]c2ccccc12)NC(=O)[C@H](Cc1ccccc1)NC(=O)[C@H](CCCN=C(N)N)NC(=O)[C@H](CCCCN)NC(=O)[C@@H](NC(=O)[C@@H](N)CCCN=C(N)N)[C@@H](C)CC)C(C)C)C(C)C)C(=O)N[C@@H](CCCN=C(N)N)C(=O)N[C@H](C(=O)N[C@H](C(=O)N[C@H](C(=O)N[C@@H](C)C(=O)NCC(=O)N[C@@H](Cc1ccc(O)cc1)C(=O)N[C@@H](CC(N)=O)C(=O)O)C(C)C)C(C)C)[C@@H](C)O [RIKRFWPVVIRTVVAGYN] | – | – | – | – | – | – | MIC [13]: ≥ 69 µM
